The values that follow come from PubChem BioAssay (NCI).

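In this assay, cells in 96-well plates receive the compound at five concentrations for 48 hours. Endpoints are linearly interpolated between the surrounding concentrations. GI50 = concentration required for 50% inhibition of growth. TGI: total growth inhibition.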

Among the test systems are CAKI-1 renal; DU-145 prostate; EKVX NSCLC; IGROV1 ovarian; K-562 leukemia; M14 melanoma; MALME-3M melanoma; OVCAR-5 ovarian; SF-268 CNS; SNB-19 CNS.
What all share (assay): DTP human tumour cell line panel, 48 h

Broadly, the TGI is the concentration at which net growth stops. Low values mean greater sensitivity of the cells, high ones lower sensitivity of the cells. With `COc1cccc(C2c3cc4c(cc3OC(C)(N3CCCC3)C2C)OCO4)c1OC` (centres undefined), the TGI was 47.4 µM in the test on CAKI-1 renal; 49.9 µM with DU-145 prostate; 78.2 µM in the test on EKVX NSCLC; above 100 µM in the test on IGROV1 ovarian; 53.1 µM with K-562 leukemia; 45.5 µM with M14 melanoma. Besides, the TGI in the test with MALME-3M melanoma worked out at 66.5 µM; in the test on OVCAR-5 ovarian, 43 µM; in the test on SF-268 CNS it was 81.3 µM; in the test on SNB-19 CNS, 95.5 µM.

For orientation: GI50 means the concentration at which growth is held to half of that of the control. On to `Clc1ccc(CSC(Cn2ccnc2)c2ccc(Cl)cc2Cl)cc1` (centres undefined), for which the GI50 is 1.55 µM with CAKI-1 renal; 2.09 µM in the test with DU-145 prostate; 1.53 µM in the test with EKVX NSCLC; 1.74 µM with IGROV1 ovarian; 2 µM with K-562 leukemia; 1.69 µM in the test with M14 melanoma. Also, the GI50 in the test with MALME-3M melanoma is 1.64 µM; with OVCAR-5 ovarian, 2.13 µM; in the test with SF-268 CNS, 1.66 µM; in the test with SNB-19 CNS, 1.52 µM. Moreover, the TGI with CAKI-1 renal was 4.05 µM; with DU-145 prostate, 4.64 µM; in the test on EKVX NSCLC, 4.55 µM; in the test on IGROV1 ovarian, 4.55 µM; in the test with K-562 leukemia, 4.81 µM; in the test on M14 melanoma, 3.12 µM. For the same compound, the TGI in the test on MALME-3M melanoma came out at 3.15 µM; with OVCAR-5 ovarian, 6.84 µM; with SF-268 CNS, 3.83 µM; in the test on SNB-19 CNS, 2.89 µM.

Consider `CC1(C)N=C(N)N=C(N)N1c1cccc(CCCCc2cccc(S(=O)(=O)F)c2)c1`, for which the GI50 is 20.3 µM in the test on CAKI-1 renal; 1.17 µM in the test on DU-145 prostate; 19.2 µM with EKVX NSCLC; 0.157 µM in the test with IGROV1 ovarian; 0.657 µM in the test on K-562 leukemia; 2.92 µM in the test on M14 melanoma. Also, the GI50 is 8.47 µM with MALME-3M melanoma, 0.887 µM with SF-268 CNS and 1.53 µM in the test on SNB-19 CNS. The concentration for total growth inhibition (TGI) is above 100 µM with CAKI-1 renal; above 100 µM with DU-145 prostate; above 100 µM in the test with EKVX NSCLC; above 58.3 µM with IGROV1 ovarian; above 100 µM in the test on K-562 leukemia; above 100 µM in the test on M14 melanoma. For the same compound, the concentration for total growth inhibition (TGI) in the test on MALME-3M melanoma was 71.8 µM; in the test on OVCAR-5 ovarian, above 100 µM; in the test on SF-268 CNS it was 20.8 µM; with SNB-19 CNS, above 77.7 µM.

With `COc1ccc(C(=O)c2cc(OC)c(OC)c(OC)c2)cc1`, the TGI in the test on CAKI-1 renal is above 88.1 µM; in the test with DU-145 prostate it was 1.58 µM; in the test with EKVX NSCLC, above 100 µM; in the test on IGROV1 ovarian, above 100 µM; in the test with K-562 leukemia it was above 100 µM; with M14 melanoma, above 100 µM. Further, the TGI in the test with MALME-3M melanoma is above 100 µM; in the test with OVCAR-5 ovarian it was above 100 µM; with SF-268 CNS it was above 86.8 µM; in the test with SNB-19 CNS it was above 32.7 µM.

Turning to `Cn1cc(-c2ccc3c(Nc4cccc(NC(=O)Nc5cccc(F)c5)c4)ncnc3c2)cn1`, the GI50 in the test on CAKI-1 renal is 0.559 µM; with DU-145 prostate it was 1.86 µM; in the test with EKVX NSCLC, 6.22 µM; in the test on IGROV1 ovarian, 1.3 µM; in the test with K-562 leukemia it was 2.14 µM; in the test with M14 melanoma it was 2.61 µM. In addition, the GI50 in the test with MALME-3M melanoma was 1.29 µM; in the test with OVCAR-5 ovarian, 10.3 µM; in the test with SF-268 CNS, 1.64 µM; in the test on SNB-19 CNS it was 3.16 µM. Besides, the TGI in the test with CAKI-1 renal was 14.9 µM; in the test on DU-145 prostate, 6.6 µM; with EKVX NSCLC, 24.3 µM; in the test on IGROV1 ovarian, 11.2 µM; in the test with K-562 leukemia, above 100 µM; with M14 melanoma, 14.9 µM. The TGI with MALME-3M melanoma turned out to be 3.79 µM; in the test on OVCAR-5 ovarian, 22 µM; in the test with SF-268 CNS, 11.2 µM; in the test on SNB-19 CNS, 13.5 µM.

With `O=[N+]([O-])c1ccc(S(=O)(=O)Cc2ccccc2)c([N+](=O)[O-])c1`, the TGI was 3.2 µM in the test with CAKI-1 renal; 9.59 µM with DU-145 prostate; 4.36 µM in the test with EKVX NSCLC; 6.36 µM in the test with IGROV1 ovarian; above 100 µM in the test with K-562 leukemia; 3.37 µM in the test on M14 melanoma. Further, the TGI in the test on MALME-3M melanoma turned out to be 6.2 µM; with OVCAR-5 ovarian, 27.3 µM; in the test with SF-268 CNS, 14.5 µM; with SNB-19 CNS, 39.6 µM.

In the case of `FC(F)(F)Oc1cccc(-c2cnc3ccc(-c4ccncc4)nn23)c1`, the GI50 in the test on CAKI-1 renal was 0.417 µM; in the test with DU-145 prostate, 1.6 µM; in the test with EKVX NSCLC, 1.39 µM; with IGROV1 ovarian, 0.502 µM; in the test on K-562 leukemia, 3.49 µM; in the test on M14 melanoma it was 0.769 µM. In addition, the GI50 with MALME-3M melanoma is 2.35 µM; with OVCAR-5 ovarian, 1.96 µM; in the test on SF-268 CNS, 2.22 µM; with SNB-19 CNS, 2.07 µM. Moreover, the TGI in the test with CAKI-1 renal was 4.11 µM; in the test on DU-145 prostate, above 100 µM; in the test on EKVX NSCLC it was above 100 µM; with IGROV1 ovarian it was 5.46 µM; in the test with K-562 leukemia, above 100 µM; in the test on M14 melanoma, above 100 µM. Further, the total growth inhibition concentration (TGI) in the test with MALME-3M melanoma, in the test with OVCAR-5 ovarian, in the test with SF-268 CNS and in the test on SNB-19 CNS was above 100 µM throughout.

Regarding `COC(=O)[C@@]12C(=O)C=CC(=O)[C@@H]1C1C(=CC2COC(C)=O)O[C@@H]2OC3(CCCCC3)O[C@H]12` (some centres undefined), the TGI with CAKI-1 renal was 25.4 µM; in the test on DU-145 prostate, 32.2 µM; with EKVX NSCLC, 32.8 µM; in the test on IGROV1 ovarian, 31.6 µM; in the test on K-562 leukemia it was 43.8 µM; in the test with M14 melanoma it was 30.1 µM. Further, the TGI is 30.2 µM in the test with MALME-3M melanoma, 30.7 µM with OVCAR-5 ovarian, 23.7 µM in the test with SF-268 CNS and 29.8 µM in the test with SNB-19 CNS.

Take `N=C(N)c1ccc(OCc2cccc(COc3ccc(C(=N)N)cc3)c2)cc1`: the GI50 is 11.4 µM with CAKI-1 renal; 6.12 µM in the test on DU-145 prostate; 2.85 µM with EKVX NSCLC; 22.2 µM in the test on IGROV1 ovarian; 3.62 µM in the test on K-562 leukemia; 2.83 µM in the test with M14 melanoma. Besides, the GI50 in the test on MALME-3M melanoma was 1.77 µM; in the test with OVCAR-5 ovarian, 29.1 µM; in the test with SF-268 CNS it was 5.53 µM; in the test on SNB-19 CNS, 5.75 µM. Also, the TGI was 27.2 µM with CAKI-1 renal; 20.3 µM in the test with DU-145 prostate; 8.25 µM in the test on EKVX NSCLC; above 100 µM in the test with IGROV1 ovarian; 19 µM in the test with K-562 leukemia; 7.35 µM in the test with M14 melanoma. For the same compound, the total growth inhibition concentration (TGI) with MALME-3M melanoma is 6.01 µM; in the test on OVCAR-5 ovarian, above 100 µM; with SF-268 CNS, 18.5 µM; with SNB-19 CNS it was above 100 µM.
